{"source": "patent US11298395B2", "about": "“Isolates from spent turmeric for the management of rheumatoid arthritis” (SAMI LABS LIMITED, priority 2017, dated 2022)", "system": "Adjuvant induced rheumatoid arthritis in rats", "test": "In vivo anti-arthritic activity: Freund's complete adjuvant induced arthritis in rats", "set-up": "species or system Male Wistar rats", "details": "reference group, dose not given", "procedure": "Male Wistar rats weighing […] were orally dosed with 100, 200 and 400 mg/kg of spent turmeric polysaccharide from day 1-day 28. The animals were given intra-dermal injection of Freund's complete adjuvant in the paw at a dosage level of 0.1 ml on days 7, 15, 21 and 28 of the study to induce arthritis. Oedema induced by the adjuvant was measured as increase in paw volumes on days 7, 15, 21 and 28. At the end of the study, animals were sacrificed and blood and tissue collected for analyzing the inflammatory parameters. The inflammatory parameters studied included, • a. Inflammation in the paws • b. Blood Biochemistry • c. Lipid Per oxidation • d. Reduced Glutathione in serum • e. Superoxide dismutase activity in serum • f. Levels of Acid and Alkaline phosphatase • g. TNF-α levels • h. IL6 levels"}
{"smiles": "CC(=O)Oc1ccccc1C(=O)O", "note": "[ASA, Acetyl salicylic acid]", "values": [{"measurement": "ACP (acid phosphatase)", "result": "6.71 ± 0.06", "unit": "IU/ml"}, {"measurement": "ALP (alkaline phosphatase)", "result": "104.18 ± 0.94", "unit": "IU/ml"}, {"measurement": "LIPID PEROXIDATION malondialdehyde formed", "result": "18.19 ± 0.10", "unit": "nm/g tissue"}, {"measurement": "Platelets", "result": "232 ± 2.65 10^9/L"}, {"measurement": "Red blood corpuscles-RBCs", "result": "4.70 ± 0.04 10^6 Cells /μl"}, {"measurement": "Reduced Glutathione", "result": "595.69 ± 0.64", "unit": "μg/g tissue"}, {"measurement": "SUPEROXIDE DISMUTASE", "result": "16.39 ± 0.01", "unit": "g activity in tissue/min"}, {"measurement": "White blood corpuscles-WBCs", "result": "7800.0 ± 85.63", "unit": "Cells/μl"}]}
